# Experimental data reported in patent US7498406B2, “Substantially cell membrane impermeable compound and use thereof” (priority 1999, dated 2009).
# How the values were obtained:
# BCE = assay: Viability of cultured cells, 72 hr; format: cell-based, bovine
# Method: FIG. 18. Inhibition of proliferation and reduction in viability of BCE cells by GSAO. 15,000 (part A and B) or 50,000 (part C and D) BCE cells per well were seeded into gelatinised 24-well culture plates and allowed to attach for 24 hr (part A, B and D) or 72 hr (part C). The media was then replaced with DMEM containing 5% BCS and 0 to 1 mM GSAO or GSAA and either 1 ng per mL FGF-2 (part A) or 10 ng per mL VEGF (part B). In part D, the media was replaced with DMEM containing 5% BCS and 1 ng per mL FGF-2 and either 10 μM GSAO or GSAA. In part C, the media was replaced with DMEM containing 5% BCS and 0 to 1 mM GSAO or GSAA. Cells were cultured for 72 hr in parts A, B and C or for discrete times up to 48 hr in part D and then dispersed and counted. The dotted line in parts A, B and C indicate the cell number in control wells containing DMEM and 5% BCS which represented no to limited proliferation. The dotted line in part D represents no change in cell number over the 48 hr. The data points and errors represent the mean and range of duplicate wells.
# BCE (Folkman et al. 1979), BAE, BxPC-3 (ATCC, Bethesda, Md.), HT1080 (Jiang et al., 1999), 3T3 (ATCC, Bethesda, Md.) and BVSM (Hogg et al., 1997) cells were harvested and cultured as indicated. Cells (0.5 mL of 30,000 or 100,000 cells per mL) were seeded into gelatinized 24-well culture plates (Corning Costar, Corning, N.Y.) in Dulbecco's Modified Eagle's Medium (DMEM, JHR Bioscience, Lenexa, Kans.) containing 10% fetal calf serum (FCS, Intergen Comp., Purchase, N.Y.) and 1% Glutamine Pen-Strep (GPS, Irvine Scientific, Santa Ana, Va.) and allowed to attach for 24 hr in 10% CO2 at 37° C. […] Cells were cultured for 0 to 72 hr in 10% CO2 at 37° C. then dispersed in trypsin/EDTA (GibcoBRL, Granc Island, N.Y.), resuspended in Coulter balanced electrolyte solution and counted with a Z1 Coulter counter (Coulter Corp., Miami, Fla.) in all experiments there were two control wells containing DMEM with 1% GPS and either 5% BCS for BCE cells, 2% BCS for BAE and BVSM cells, or 2% FCS for BxPC-3, HT1080 and 3T3 cells. […]
# HDMVE cells = assay: Endothelial cell tube formation in Matrigel; format: cell-based, human; conditions: 0.1, 1 or 100 μM; 18 hours
# Method: FIG. 21. GSAO perturbs endothelial cell tube formation in Matrigel. Matrigel (100 μl) was added to wells of 96 well plates and allowed to gel for 60 minutes at 37° C. HDMVE cells (10,000 cells per well) in complete media containing 0.1, 1 or 100 μM GSAA or GSAO were seeded onto the Matrigel and the plates were incubated in 5% CO2, 37° C. The phase contrast micrographs were taken after 18 hours incubation.
# Endothelial cells arrange into tube-like structures when seeded onto three-dimensional matrices such as the extracellular matrix preparation, Matrigel, or collagen. The tubes can be considered to represent immature blood vessels. Matrigel (100 μl, Becton Dickinson, Bedford, Mass.) was added to wells of 96 well plates (Gibco BRL, Gaithersburg, Md.) and allowed to gel for 60 minutes at 37° C. Human dermal microvascular endothelial (HDMVE) cells were harvested and cultured as described by Stathakis et al (1997), HDMVE cells (8,000 cells per well) in 150 μl of M199 (Gibco BRL, Gaithersburg, Md.) media containing 30% pooled human serum, 50 μg per mL Heparin (Sigma, St. Louis, Mo.), 100 μg per mL Endothelial Cell Growth Supplement (Gibco BRL, Gaithersburg, Md.) and 0.1, 1 or 100 μM GSAA or GSAO were seeded onto the Matrigel and the plates were incubated for 18 hours in 5% CO2, 37° C. Phase contrast micrographs of the wells were collected.
# Lewis lung tumours = assay: Tumour growth in mice, subcutaneous administration; format: in vivo, C57Bl6/J mice; conditions: 10 mg per kg per day; for inhibition of the rate of Lewis lung tumour growth: subcutaneous
# Method: FIG. 25. Inhibition of human fibrosarcoma and murine Lewis lung tumour growth following systemic administration of GSAO. HT1080 or Lewis lung tumours were established in the proximal midline of female 7 to 9 week old SCID or C57Bl6/J mice, respectively. When the tumours were ˜0.1 cm^3 in volume the mice were randomised into two groups (n=5) and treated with either GSAA or GSAO at a dose of 10 mg per kg per day in 0.2 mL of PBS containing 100 mM glycine. The compounds were administered subcutaneously at a site distant from the tumour. Tumour volume and animal weight was measured every 3 days. The GSAO/GSAA HT1080 tumour volume ratio at day 17 of treatment was 0.29 (part A). The GSAO/GSAA Lewis lung tumour volume ratio at day 12 of treatment was 0.29 (part B). The data points and errors represent the mean and SE of the tumour volumes.
# Female 7 to 9 week old SCID or C57Bl6/J mice were used (Massachusetts General Hospital, Boston, Mass.). Mice were held in groups of 3 to 5 at a 12 hour day and night cycle and were fed with animal chow and water ad libidum. SCID mice were anaesthetised by inhalation of isoflurane, the dorsal skin shaved and cleaned with ethanol, and a suspension of 2.5×10^6 BxPC-3 or HT1080 cells in 0.2 mL of DMEM was injected subcutaneously in the proximal midline. C57Bl6/J mice with Lewis lung carcinomas of 0.6-1.2 cm^3 volumes were sacrificed and the skin overlying the tumour was cleaned with betadine and ethanol. Tumour tissue was excised under aseptic conditions and a suspension of tumour cells in 0.9% saline was made by passage of tumour tissue through a sieve and a series of sequentially smaller 22- to 30-gauge hypodermic needles. C57Bl6/J mice were anaesthetised and prepared as for SCID mice and a suspension of Lewis lung carcinoma cells in 0.2 mL of saline was injected subcutaneously in the proximal midline. […] The tumours were measured in two diameters and tumour volume was calculated using the relationship, tumour volume=a×b^2×0.52, where a is the longest and b the shortest diameters in cm. […] Tumour volume and animal weight was measured every 3 days. […]
Compound,effect on viability of BCE cells (BCE; 0 to 1 mM),effect on tube formation (HDMVE cells),inhibition of the rate of Lewis lung tumour growth (Lewis lung tumours),"time dependence of the decrease in viability (BCE; 10 μM, 1 ng per mL FGF-2, up to 48 hr)","IC50 (BCE; 5% BCS + 10 ng/mL VEGF, >90% confluent, 72 hr) [nM]",GSAO/GSAA Lewis lung tumour volume ratio (Lewis lung tumours; day 12 of treatment)
"N[C@@H](CCC(=O)N[C@@H](CSCC(=O)Nc1ccc([As](=O)(O)O)cc1)C(=O)NCC(=O)O)C(=O)O [GSAA, 4-(N-(S-glutathionylacetyl)amino)phenylarsonic acid, reference compound]",no significant effect on viability,no apparent effect on tube formation,no effect,–,–,–
"NC(CCC(=O)NC(CSCC(=O)Nc1ccc([As]=O)cc1)C(=O)NCC(=O)O)C(=O)O (centres unmarked) [GSAO, 4-(N-(S-glutathionylacetyl)amino)-phenylarsenoxide]",–,Effects were apparent at 0.1 μM concentration and marked at 100 μM,~70%,no decrease in viability after 8 hours,~3000,0.29
